Values of other authors as cited in US20130197188A1 (priority 2010, published 2013).

How the values were obtained:
[1] = test system: patients with acute decompensated heart failure (ADHF)
[2] = test system: patients with chronic congestive heart failure; settings: 15 ng/kg/min, 10-hour infusion; loss of action during infusion
[3] = test system: patients with moderate asthma affliction; settings: brief infusion; healthy and diseased subjects

With urodilatin as the substance, how does the “changes of the baseline in pulmonary capillary wedge pressure (PCWP)” value ([1]; 15+30 ng/kg/min, compared with the placebo group, FIG. 4A) read?
Its value is “significant reductions”.

And the “changes of the cardiac index (CI)” value ([1]; 15 and 30 ng/kg/min, FIG. 4C)?
The value was “significant increase”.

What about the “persistence of the effect on PCWP and CI (rebound)” value ([1]; during infusion, slight increase of PCWP and partial drop of CI) of the same substance?
Its value is “slightly reversed after 6 to 8 hours”.

What about the “symptoms, morbidity and mortality” value ([1]; for all doses) of the same substance?
The value was “significantly improved”.

What about the “therapeutic window (dose)” value ([1]; intermediate dose applied) of the same substance?
The value was “about 15 ng/kg/min”.

And the “central venous pressure (CVP)” value [2]?
Its value is “increases slightly already after 5 hours of infusion”.

And the urine flow [2]?
The urine flow was “loss of action after 8 hours of infusion”.

What about the effect on bronchoconstriction [3] of the same substance?
Its effect on bronchoconstriction is “biologically relevant effectiveness”.
